This note sets out measurements from the PolyMetriX glass transition set.

Counter-ions that a name gives are not always drawn. ± gives the standard deviation of the reports.

Test in data set [1]: not given
The source holds these as a separate data set.

`*Oc1ccc(C(c2ccc(Oc3cccc4c3C(=O)N(c3ccc(Oc5ccc(N6C(=O)c7cccc(*)c7C6=O)cc5)cc3)C4=O)cc2)(C(F)(F)F)C(F)(F)F)cc1` (repeat unit) had a glass transition temperature of 226.00 °C. Same read-out and setting: in the case of `*Oc1c(F)c(F)c(Oc2c(F)c(F)c3c(c2F)C(=O)N(c2c(F)c(F)c(F)c(N4C(=O)c5c(F)c(*)c(F)c(F)c5C4=O)c2F)C3=O)c(F)c1F` (repeat unit) it was 309.00 °C; in that of `*Oc1c(F)c(F)c(Oc2c(F)c(F)c3c(c2F)C(=O)N(c2c(F)c(F)c(Oc4c(F)c(F)c(N5C(=O)c6c(F)c(*)c(F)c(F)c6C5=O)c(F)c4F)c(F)c2F)C3=O)c(F)c1F` (repeat unit), 300.00 °C.

`*Oc1c(F)c(F)c(Oc2c(F)c(F)c3c(c2F)C(=O)N(c2c(F)c(F)c(Sc4c(F)c(F)c(N5C(=O)c6c(F)c(*)c(F)c(F)c6C5=O)c(F)c4F)c(F)c2F)C3=O)c(F)c1F` (repeat unit) came in with a glass transition temperature of 278.00 °C. Still for that read-out and setting: in the case of `*Oc1ccc2c(c1)C(=O)N(c1ccc(C(=O)c3ccc(N4C(=O)c5ccc(*)cc5C4=O)cc3)cc1)C2=O` (repeat unit) it was 274.00 °C; in that of `*C(=O)Oc1ccc2ccccc2c1-c1c(OC(=O)c2ccc3c(c2)C(=O)N(c2ccc(C(=O)Oc4ccc5ccccc5c4-c4c(OC(=O)c5ccc(N6C(=O)c7ccc(*)cc7C6=O)cc5)ccc5ccccc45)cc2)C3=O)ccc2ccccc12` (repeat unit), 266.50 °C; in that of `*C(=O)c1ccc2c(c1)C(=O)N(c1ccc(C(=O)Oc3ccc4ccccc4c3-c3c(OC(=O)c4ccc(N5C(=O)c6ccc(*)cc6C5=O)cc4)ccc4ccccc34)cc1)C2=O` (repeat unit), 273.50 °C. Take `*Oc1ccc2c(c1)C(=O)N(c1cccc(Oc3ccc(P(=O)(c4ccccc4)c4ccc(Oc5ccc(N6C(=O)c7ccc(*)cc7C6=O)cc5)cc4)cc3)c1)C2=O` (repeat unit): the glass transition temperature is 240.00 °C. In the case of `*C(=O)c1ccc2c(c1)C(=O)N(c1cc(N3C(=O)c4ccc(*)cc4C3=O)ccc1OCC(F)(F)C(F)(F)C(F)(F)C(F)(F)C(F)(F)C(F)(F)C(F)(F)C(F)(F)C(F)(F)C(F)(F)F)C2=O` (repeat unit), the glass transition temperature was 194.00 °C. Regarding `*c1ccc(Cc2ccc(-n3c(=O)c4cc5c(=O)n(*)c(=O)c5cc4c3=O)c(C)c2)cc1C` (repeat unit), the glass transition temperature is 274.00 °C. Still for that read-out and setting: in the case of `*Oc1cccc(Oc2ccc(Oc3ccc4c(c3)C(=O)N(c3ccc(Oc5ccc(N6C(=O)c7ccc(*)cc7C6=O)cc5)cc3)C4=O)cc2)c1` (repeat unit) it was 215.00 °C; in that of `*Oc1cccc(S(=O)(=O)c2ccc(Oc3ccc4c(c3)C(=O)N(c3ccc(Oc5ccc(N6C(=O)c7ccc(*)cc7C6=O)cc5)cc3)C4=O)cc2)c1` (repeat unit), 260.00 °C; in that of `*Oc1cccc(Sc2ccc(Oc3ccc4c(c3)C(=O)N(c3ccc(Oc5ccc(N6C(=O)c7ccc(*)cc7C6=O)cc5)cc3)C4=O)cc2)c1` (repeat unit), 212.00 °C. For `*Oc1cccc(S(=O)(=O)c2ccc(Oc3cccc4c3C(=O)N(c3ccc(Oc5ccc(N6C(=O)c7cccc(*)c7C6=O)cc5)cc3)C4=O)cc2)c1` (repeat unit), the glass transition temperature came out at 267.00 °C. On the same count and under the same terms, in the case of `*Oc1cccc(Sc2ccc(Oc3cccc4c3C(=O)N(c3ccc(Oc5ccc(N6C(=O)c7cccc(*)c7C6=O)cc5)cc3)C4=O)cc2)c1` (repeat unit) it was 234.00 °C; in that of `*Oc1cccc(S(=O)(=O)c2ccc(Oc3ccc4c(c3)C(=O)N(c3ccc(Oc5cccc(Oc6ccc(N7C(=O)c8ccc(*)cc8C7=O)cc6)c5)cc3)C4=O)cc2)c1` (repeat unit), 194.00 °C. Still for that read-out and setting: in the case of `*Oc1cccc(Oc2ccc(Oc3cccc4c3C(=O)N(c3cccc(N5C(=O)c6cccc(*)c6C5=O)c3)C4=O)cc2)c1` (repeat unit) it was 238.00 °C; in that of `*Oc1cccc2c1C(=O)N(c1cccc(Oc3ccc(C(=O)c4ccc(Oc5cccc(N6C(=O)c7cccc(*)c7C6=O)c5)cc4)cc3)c1)C2=O` (repeat unit), 198.00 °C; in that of `*Oc1ccc(Oc2ccc(Oc3cccc4c3C(=O)N(CCCCCCCCN3C(=O)c5cccc(*)c5C3=O)C4=O)cc2)cc1` (repeat unit), 128.00 °C. Take `*C(*)(F)F` (repeat unit) [Poly(tetrafluoroethylene)]: the glass transition temperature in data set [1] worked out at 118.42 ± 2.2 °C. Same read-out and setting: in the case of `*CC1CC(*)OC(CCC)O1` (repeat unit) [Poly(vinyl butyral)] it was 54.42 ± 9.2 °C; in that of `*CC1CC(*)OCO1` (repeat unit) [Poly(vinyl formal) ], 104 ± 21 °C. Same read-out and setting: in the case of `*CC(*)OC=O` (repeat unit) [Poly(vinyl formate)] it was 32.4 ± 3.6 °C; in that of `*CC(*)OC(=O)CC` (repeat unit) [Poly(vinyl propionate) ], 10 ± 2 °C.

Take `*Oc1ccc(C(CCC)c2ccc(OC(*)=O)cc2)cc1` (repeat unit) [Poly[1,1-butane bis(4-phenyl)carbonate] ]: in data set [1], the glass transition temperature was 123 ± 0.6 °C. For the compound `*CC(*)C(F)(F)C(F)(F)C(F)(F)F` (repeat unit) [Poly[(heptafluoropropyl)ethylene] ], in data set [1], the glass transition temperature turned out to be 58 ± 0.6 °C. Still for that read-out and setting: in the case of `*Sc1ccc(*)cc1` (repeat unit) [Poly[thio(p-phenylene)] ] it was 87 ± 2.2 °C; in that of `*CC/C=C(/*)C` (repeat unit) [Polyisoprene (cis)], -67.00 ± 7 °C.

On to `*CCN*` (repeat unit) [poly(2-oxazoline)s], for which the glass transition temperature in data set [1] is -35.77 ± 17 °C. Regarding `*CC(COCC=C)O*` (repeat unit) [poly(allyl glycidyl ether)], the glass transition temperature in data set [1] is -35.33 ± 57 °C. In data set [1], `*CC(*)(C)c1ccccc1` (repeat unit) [poly(alpha-methylstyrene)] showed a glass transition temperature of 168.00 ± 140 °C. Regarding `*CC(*)(C)C(=O)OCCCC` (repeat unit) [poly(butyl methacrylate)], the glass transition temperature in data set [1] came out at 22.42 ± 6.3 °C. Still for that read-out and setting: in the case of `*c1ccc(-c2nc3cc(-c4ccc5nc(-c6ccccc6)c(*)nc5c4)ccc3nc2-c2ccccc2)cc1` (repeat unit) [poly(phenylquinoxaline)] it was 367.43 ± 3.4 °C; in that of `*CC(*)C1CCCCC1` (repeat unit) [poly(vinylcyclohexane)], 104.78 ± 28 °C.
